# Data taken from US9790233B2, “Compositions and methods of modulating 15-PGDH activity” (CASE WESTERN RESERVE UNIVERSITY, priority 2012, dated 2017).
# pIC50: −log10 of the molar value. Where two headings read alike, the source gives them in different places.
# Key:
# [1] = tested on: 15-PGDH luciferase fusion construct in Vaco503 reporter cell line; test: 15-PGDH-luciferase fusion gene reporter induction, V503 cells; format: cell-based
# [2] = tested on: A549 cells; test: PGE2 levels in the medium of IL1-beta stimulated A549 cells;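 as to all read-outs here: PGE2 in the collected culture medium quantified by enzyme immunoassay (ELISA), with data drawn from three independent experiments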; format: cell-based; conditions: for rank of reduction in levels of PGE2 in the medium / rank of PGE2 level in the medium: 100 nM drug; for rank of reduction in levels of PGE2 in the medium: FIG. 94; for rank of PGE2 level in the medium: FIG. 44
# [3] = tested on: 15-PGDH luciferase fusion construct in V9m reporter cell line; test: 15-PGDH-luciferase fusion gene reporter induction, V9m cells; format: cell-based
# [4] = tested on: 15-PGDH luciferase fusion construct in LS174T reporter cell line; test: 15-PGDH-luciferase fusion gene reporter induction, LS174T cells; format: cell-based; conditions: Homo sapiens
# [5] = target: 15-PGDH protein (Homo sapiens (Human), UniProt P15428); test: Inhibition of enzymatic activity of recombinant 15-PGDH in vitro (tritium transfer from PGE2 or NADH fluorescence); format: biochemical; conditions: for inhibition at […]: read-out: Enzyme inhibition % ([…]), recombinant 15-PGDH, […] compound, Table 18
# [6] = Survival after whole body irradiation; format: in vivo, C57BL/6J mice; conditions: 11 Gy
# [7] = read-out: V503-3H9-7 reporter activity, % ([…]), V503 reporter cells, […] compound, % induction of luciferase activity over basal level, read-out: V503-3H9-7 reporter activity, % (2.5 μM)
# [8] = read-out: V503-3H9-7 reporter activity, % ([…]), V503 reporter cells, […] compound, % induction of luciferase activity over basal level, read-out: V503-3H9-7 reporter activity, % (7.5 μM)
# [9] = read-out: V9M-SC3 Reporter activity ([…]) (%), V9m reporter cells, […] compound, % induction of luciferase activity over basal level, read-out: V9M-SC3 Reporter activity (2.5 μM) (%)
# [10] = read-out: V9M-SC3 Reporter activity ([…]), %, V9m reporter cells, […] compound, % induction of luciferase activity over basal level, read-out: V9M-SC3 Reporter activity (7.5 μM), %
# [11] = read-out: Ls174T-SC1 reporter activity, % ([…]), LS174T reporter cells, […] compound, % induction of luciferase activity over basal level, read-out: Ls174T-SC1 reporter activity, % (2.5 μM)
# [12] = read-out: Ls174T-SC1 reporter activity, % ([…]), LS174T reporter cells, […] compound, % induction of luciferase activity over basal level, read-out: Ls174T-SC1 reporter activity, % (7.5 μM)
# [13] = read-out: V503 reporter activity ([…]), […], % increased luciferase activity over basal level, read-out: V503 reporter activity (2.5 uM)
# [14] = read-out: V503 reporter activity ([…]), […], % increased luciferase activity over basal level, read-out: V503 reporter activity (7.5 uM)
# [15] = read-out: V9M reporter activity ([…]), […], % increased luciferase activity over basal level, 100 = doubling, read-out: V9M reporter activity (2.5 uM)
# [16] = read-out: V9M reporter activity ([…]), […], % increased luciferase activity over basal level, 100 = doubling, read-out: V9M reporter activity (7.5 uM)
# [17] = read-out: LS174T reporter activity ([…]), […], % increased luciferase activity over basal level, read-out: LS174T reporter activity (2.5 uM)
# [18] = read-out: LS174T reporter activity ([…]), […], % increased luciferase activity over basal level, read-out: LS174T reporter activity (7.5 uM)
# [19] = read-out: V503-3H9-7 reporter activity, % ([…]), […], Table 18, read-out: V503-3H9-7 reporter activity, % (2.5 μM)
# [20] = read-out: V503-3H9-7 reporter activity, % ([…]), […], Table 18, read-out: V503-3H9-7 reporter activity, % (7.5 μM)
# [21] = read-out: Enzyme inhibition % (7.5 μM)
# [22] = read-out: V9M-SC3 Reporter activity ([…]) (%), […], Table 18, read-out: V9M-SC3 Reporter activity (2.5 μM) (%)
# [23] = read-out: Ls174T-SC1 reporter activity, % ([…]), […], Table 18, read-out: Ls174T-SC1 reporter activity, % (2.5 μM)
# [24] = read-out: Ls174T-SC1 reporter activity, % ([…]), […], Table 18, read-out: Ls174T-SC1 reporter activity, % (7.5 μM)
# [25] = read-out: V503 reporter activity ([…]), […], % induction over basal level, Table 17, read-out: V503 reporter activity (2.5 μM)
# [26] = read-out: V503 reporter activity ([…]), […], % induction over basal level, Table 17, read-out: V503 reporter activity (7.5 μM)
# [27] = read-out: V9M reporter activity ([…]), […], % induction of luciferase activity over basal level, Table 17, read-out: V9M reporter activity (2.5 μM)
# [28] = read-out: V9M reporter activity ([…]), […], % induction over basal level, Table 17, read-out: V9M reporter activity (7.5 μM)
# [29] = read-out: LS174T reporter activity ([…]), […], % induction over basal level, Table 17, read-out: LS174T reporter activity (2.5 μM)
# [30] = read-out: lS174T reporter activity ([…]), […], % induction over basal level, Table 17, read-out: lS174T reporter activity (7.5 μM)
# Chain of 15-PGDH protein (P15428 whole entry): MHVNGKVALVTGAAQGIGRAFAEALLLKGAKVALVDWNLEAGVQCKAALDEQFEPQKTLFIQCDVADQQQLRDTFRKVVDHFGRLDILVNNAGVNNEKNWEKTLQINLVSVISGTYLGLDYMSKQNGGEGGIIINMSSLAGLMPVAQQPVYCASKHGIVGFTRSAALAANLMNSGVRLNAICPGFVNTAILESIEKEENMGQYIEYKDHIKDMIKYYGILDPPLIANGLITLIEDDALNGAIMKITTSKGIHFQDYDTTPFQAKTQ
Molecule,"activation at […] [1, 7] [%]","activation at […] [1, 8] [%]","activation at […] [3, 9] [%]","activation at […] [3, 10] [%]","activation at […] [4, 11] [%]","activation at […] [4, 12] [%]","activation at […] [1, 25] [%]","activation at […] [1, 26] [%]","activation at […] [3, 27] [%]","activation at […] [3, 28] [%]","activation at […] [4, 29] [%]","activation at […] [4, 30] [%]",further results
CCOC(=O)CN(c1cc(OC)ccc1OC)S(=O)(=O)c1ccccc1 [SW202951],97.5,131,4.56,17.7,34.3,47.6,–,–,–,–,–,–,"Decrease PGE-2 (IL-1beta-A549, %) ([2]; media of IL-1beta stimulated A549 cells): −1.01%"
CCCC[S@](C)(O)c1sc2nc(-c3cccs3)cc(-c3ccccc3)c2c1N [SW033291 isomer B],–,–,–,–,–,–,–,–,–,–,–,–,"pIC50 ([5]; recombinant 15-PGDH in vitro, Table 2, read-out: Enzyme inhibition (IC50)): 9.12"
"2-(butylsulfinyl)-4-phenyl-6-(thiophen-2-yl)thieno[2,3-b]pyridin-3-amine [SW033291]",–,–,–,–,–,–,–,–,–,–,–,–,longer survival than vehicle control ([6]; 5 mg/kg IP daily): 48 h; day on which all mice were dead ([6]; control day 8): 10 days
COc1ccc(S(=O)(=O)N(CC(=O)N2CCCCCC2)c2cc(OC)ccc2OC)cc1 [SW207998],144,147,53.4,58.9,65.2,77,–,–,–,–,–,–,rank of reduction in levels of PGE2 in the medium [2]: greatest reduction in levels of PGE2
"CCCC[S+]([O-])c1sc2nc(-c3cccs3)nc(-c3ccccc3)c2c1N (stereo not shown) [SW208067, 6-(butylsulfinyl)-4-phenyl-2-(thiophen-2-yl)thieno[2,3-d]pyrimidin-5-amine]",–,–,–,–,–,–,–,–,–,–,–,–,"activation at […] [1, 13]: 94.3%; activation at […] [1, 14]: 79.6%; rank of PGE2 level in the medium [2]: highest levels of PGE2; activation at […] [3, 15]: 122%; activation at […] [3, 16]: 108%; activation at […] [4, 17]: 94.3%; activation at […] [4, 18]: 79.6%"
COc1ccc(S(=O)(=O)N(CC(=O)N2CCOCC2)c2cc(OC)ccc2OC)cc1 [SW207997],149,157,59.5,71,87.6,94.1,–,–,–,–,–,–,rank of reduction in levels of PGE2 in the medium [2]: greatest reduction in levels of PGE2
COc1ccc(NC(=O)CN(c2cc(OC)ccc2OC)S(=O)(=O)c2ccccc2)cc1 [333447-10-2],–,–,–,–,–,–,–,–,–,–,–,–,"activation at […] [1, 19]: 76.9%; activation at […] [1, 20]: 159%; inhibition at […] ([5]; read-out: Enzyme inhibition % (2.5 μM)): 27%; inhibition at […] [5, 21]: 46.5%; percent induction of reporter activity over basal level at […] ([3]; read-out: V9M-SC3 Reporter activity % ([…]), 7.5 μM, Table 18): 10%; activation at […] [3, 22]: -0.5%; activation at […] [4, 23]: 7.54%; activation at […] [4, 24]: 14.4%"
"CCCC[S+]([O-])c1sc2ncccc2c1N (stereo not shown) [SW208064, 2-(butylsulfinyl)thieno[2,3-b]pyridin-3-amine]",–,–,–,–,–,–,–,–,–,–,–,–,"activation at […] [1, 13]: 126%; activation at […] [1, 14]: 96.2%; activation at […] [3, 15]: 82.6%; activation at […] [3, 16]: 50.1%; activation at […] [4, 17]: 126%; activation at […] [4, 18]: 96.2%"
COc1ccc(OC)c(N(CC(=O)Nc2ccnc(C)c2)S(=O)(=O)c2ccccc2)c1 [SW202966],115,249,-0.84,67.7,1.82,78.2,–,–,–,–,–,–,–
COc1ccc(S(=O)(=O)N(CC(=O)Nc2ccccc2)c2ccccc2)cc1 [compound 474738],–,–,–,–,–,–,17,24.6,-7.27,3.48,-0.36,3.5,–
COc1ccc(OC)c(N(CC(=O)Nc2cccnn2)S(=O)(=O)c2ccccc2)c1 [SW203680],10.4,33,14,25.2,11.7,46,–,–,–,–,–,–,–
COc1ccc(OC)c(N(CC(=O)Nc2cccc(Br)c2)S(=O)(=O)c2ccc(OC)c(OC)c2)c1 [compound 939417],–,–,–,–,–,–,12.6,16.2,-11.2,-9.81,6.5,-1.64,–
CCOC(=O)c1ccc(NC(=O)CN(c2cc(OC)ccc2OC)S(=O)(=O)c2ccc(OC)c(OC)c2)cc1 [compound 1003132],–,–,–,–,–,–,15.4,16.1,-5.6,-0.21,5.16,1.73,–
COc1ccc(OC)c(N(CC(=O)Nc2ccccc2C(=O)NC(C)C)S(=O)(=O)c2ccc(OC)c(OC)c2)c1 [compound 1003378],–,–,–,–,–,–,7.23,16.7,-4.42,-3.27,7.3,1.27,–
COc1ccc(OC)c(N(CC(=O)Nc2ccccc2F)S(=O)(=O)c2ccccc2)c1 [compound 503270],–,–,–,–,–,–,29.9,42.1,-4.47,24.1,12.3,32.8,–
COc1ccc(OC)c(N(CC(=O)Nc2ccccn2)S(=O)(=O)c2ccccc2)c1 [SW202941],75.9,83.5,-10.9,2.57,-23.8,-43.2,–,–,–,–,–,–,–
"CCCC[S+]([O-])c1ncccc1[N+](=O)[O-] (stereo not shown) [SW208069, 2-(butylsulfinyl)-3-nitropyridine]",–,–,–,–,–,–,–,–,–,–,–,–,"IC50 ([5]; recombinant 15-PGDH in vitro, Table 2, cells printed in uM, read-out: Enzyme inhibition (IC50)): > 7.5 µM"
COc1ccc(Cl)cc1N(CC(=O)Nc1cccnc1)S(=O)(=O)c1ccccc1 [328012−52−8],–,–,–,–,–,–,–,–,–,–,–,–,"activation at […] [1, 19]: 243%; activation at […] [1, 20]: -4.89%; activation at […] [3, 22]: -15.4%; activation at […] [4, 23]: 128%; activation at […] [4, 24]: 176%"
COc1ccc(OC)c(N(CC(=O)Nc2ccc(I)cc2)S(=O)(=O)c2ccc(C)cc2)c1 [compound 771146],–,–,–,–,–,–,-49.7,-86.6,-38.1,-78.3,-31.6,-68.8,–
COc1ccc(OC)c(N(CC(=O)Nc2cccc(C)c2)S(=O)(=O)c2ccccc2)c1 [SW202969],62.4,126,-21,-14.3,-15.9,17.9,–,–,–,–,–,–,–
COc1ccc(OC)c(N(CC(=O)Nc2ccc(C)cc2)S(=O)(=O)c2ccccc2)c1 [311333-86-5],–,–,–,–,–,–,–,–,–,–,–,–,"activation at […] [1, 19]: 102%; activation at […] [1, 20]: 131%; inhibition at […] [5, 21]: 34%; activation at […] [3, 22]: 53%; activation at […] [4, 23]: 30%; activation at […] [4, 24]: 53.4%"
CCc1ccccc1NC(=O)CN(c1ccc(OC)cc1OC)S(=O)(=O)c1ccccc1 [compound 407572],–,–,–,–,–,–,17.2,35.9,-8.45,-6.12,2.22,6.94,–
"CCCC[S+]([O-])c1sc2nc(-c3nccs3)cc(-c3ccccc3)c2c1N (stereo not shown) [SW208066, 2-(butylsulfinyl)-4-phenyl-6-(thiazol-2-yl)thieno[2,3-b]pyridin-3-amine]",–,–,–,–,–,–,–,–,–,–,–,–,rank of PGE2 level in the medium [2]: highest levels of PGE2
